Laboratory results reported in publication PMC10220285, “Development of an assay pipeline for the discovery of novel small molecule inhibitors of human glutathione peroxidases GPX1 and GPX4” (Redox Biology, 2023).

Biological target: T1, GPX4 (Homo sapiens, UniProt P36969)
T1 construct: made in house; host or cells: E. coli
T1 sequence (P36969 1-170 isoform P36969-2): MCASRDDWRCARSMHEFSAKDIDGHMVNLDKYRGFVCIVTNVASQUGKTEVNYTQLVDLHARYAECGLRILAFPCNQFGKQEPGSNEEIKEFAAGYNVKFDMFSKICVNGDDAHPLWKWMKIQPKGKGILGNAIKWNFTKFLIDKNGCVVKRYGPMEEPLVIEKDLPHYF
Assay: GR-coupled GPX4 activity assay (NADPH fluorescence, CHP substrate)
Format: biochemical
Settings: Fig. 9 pan-selenoprotein inhibitors
Procedure: The compound plates were prepared as described previously. Purified recombinant human GPX1, GPX2, GPX4, GR, and TXNRD1 were produced and purified as previously reported [[48], [49], [50]]. As production of GPX2 was not optimized at the onset of screening, only GPX1 and GPX4 underwent library screening, and GPX2 was used as a follow-up.
Follow-up and orthogonal assays were run in quadruplicate unless otherwise stated. Assay schemes are illustrated in Fig. 1.
To measure GPX activity, assays were performed in 1536-well format in black medium-binding solid-bottom plates (Greiner). These assay conditions were optimized for high-throughput screening from an assay first described by Paglia and Valentine. GPX activity is measured indirectly by coupling the reaction with GR whereby GPX reduces hydroperoxide by oxidizing two GSH to GSSG and the oxidized glutathione is recycled to its reduced state by GR and NADPH (Fig. 1B). The rate of consumption of NADPH is directly proportional to the activity of GPX and can be measured by the decrease in fluorescence at 340 nm/450 nm.
First, 3 μL of enzyme in TES assay buffer (50 mM Tris-HCl, 2 mM EDTA (pH 7.5), 150 mM NaCl with enzyme [10 nM GPX1, 200 nM GPX4 ] and BSA [0.01%]) was added to columns 3–48 of 1536-well plates using a BioRAPTR Flying Reagent Dispenser (Let's Go Robotics (LGR), Carlsbad, CA). A no-enzyme control (0.01% BSA in TES assay buffer) was added to columns 1–2. Compounds (25 nL, library and DMSO controls) were added to each well with a pin tool (Kalypsys), and the plates were incubated for 30 min at room temperature before 1 μL of master mix (100 nM GR, 1 mM GSH, 0.5 mM NADPH in TES buffer) was added. 1 μL of cumene hydroperoxide (CHP) ([0.5 mM] in 50% EtOH) was then added within 5 min to initiate the reaction. Fluorescence at 340/450 nm was measured using a ViewLux multimodal detector (PerkinElmer, Waltham, MA) at initial t = 0 and endpoint t = 15 min (GPX1) or t = 20 min (GPX4).
Follow-up confirmation assays were also run in 96-well format using medium binding clear 96-well SpectraPlate microplates (PerkinElmer) and NADPH absorbance at 340 nm was measured every 30 s for 30 min using an Infinite® M Nano (Tecan).
Percent activity was determined by first calculating delta RFU (decrease in fluorescence between t = 0 and t = 20/30 min in primary GPX, GR counter-screen, and TXNRD1 assays, or increase in fluorescence between t = 0 and t = 20 min in the Monobromobimane GPX endpoint assay), and normalizing enzyme activity using median delta RFU values for DMSO-treated enzyme control, and DMSO-treated no-enzyme controls.
Compound inhibitory activity in the qHTS assays was determined by plotting dose-response data for each sample and fitting with a four-parameter logistic fit to assess IC50 values, efficacy (maximal response), and AUC (area under the curve), as previously described. Hits were classified by the quality of the concentration-response curves (CRC). Curve classes −1.1 and −1.2 being the highest-confidence actives with complete CRCs and classes −2.1 and −2.2 being lower-confidence actives with incomplete CRCs.

`O=S(=O)(O)CC(S)CS` (centres unmarked) [2,3-dimercaptopropanesulfonate] was tested, and the “inhibition of GPX4” value was “inhibited all tested selenoproteins” and the “inhibition of GPX4” value (listed as 2,3-dimercaptopropanesulfonic acid) was “inhibited all selenoproteins”.
